Measured values taken from ChEMBL document CHEMBL6078705 (Bioorg Med Chem, 2025).
Active and inactive are the calls of the source. The calls are words filed in the database; no cut-off is given here.

How the values were obtained:
[1] = Inhibition of bovine brain tubulin polymerization preincubated for 15 mins followed by GTP addition and measured after 20 mins by spectrophotometric analysis; parameters: species or system Bos taurus
Tubulin (Homo sapiens) = Tubulin (Homo sapiens) (UniProt P68371+Q9H4B7+P0DPH7+P68366+Q13509+Q71U36+P04350+Q3ZCM7+P07437+P68363+Q9BQE3+Q6PEY2+Q13885+Q9BVA1+Q9BUF5); test: Inhibition of [3H]Colchicine binding to tubulin (unknown origin) at 5 uM incubated for 10 mins in presence of GTP by Beckman scintillation counter relative to control; assay type: protein-complex assay
MCF7 = test: Cytotoxicity against human MCF7 cells assessed as cell growth inhibition; assay type: functional
MDA-MB-231 = test: Cytotoxicity against human MDA-MB-231 cells assessed as cell growth inhibition incubated for 96 hrs by SRB assay; assay type: functional
[2] = Toxicity in female syngenic BALB/c mouse implanted with orthotropic RENCA-Luc cells assessed as animal death at 50 to 100 mg/kg, ip measured after 24 hrs; assay type: organism-based; details: in vivo, dose 50-100 mg/kg
Mus musculus [3] = test: Vascular disrupting agent in female syngenic BALB/c mouse implanted with orthotropic RENCA-Luc cells assessed as reduction in bioluminescence imaging signal at 50 mg/kg, ip measured at 4 hrs by imaging analysis relative to control; assay type: functional; parameters: scale not given: the % may be the effect or the level left
Mus musculus [4] = test: Vascular disrupting agent in female syngenic BALB/c mouse implanted with orthotropic RENCA-Luc cells assessed as reduction in bioluminescence imaging signal at 50 mg/kg, ip measured at 24 hrs by imaging analysis; assay type: functional, organism-based
Mus musculus [5] = test: Vascular disrupting agent in female syngenic BALB/c mouse implanted with orthotropic RENCA-Luc cells assessed as reduction in bioluminescence imaging signal at 100 mg/kg, ip measured at 4 hrs by imaging analysis relative to control; assay type: functional; parameters: scale not given: the % may be the effect or the level left
Mus musculus [6] = test: Vascular disrupting agent in female syngenic BALB/c mouse implanted with orthotropic RENCA-Luc cells assessed as reduction in bioluminescence imaging signal at 100 mg/kg, ip measured at 24 hrs by imaging analysis; assay type: functional, organism-based
Mus musculus [7] = test: Vascular disrupting activity in female BALB/c mouse implanted with orthotropic 4T1-Luc cells assessed as reduction in bioluminescence imaging signal at 20 mg/kg, ip measured at 4 hrs by imaging analysis; assay type: functional, organism-based
Mus musculus [8] = test: Vascular disrupting activity in female BALB/c mouse implanted with orthotropic 4T1-Luc cells assessed as reduction in bioluminescence imaging signal at 20 mg/kg, ip measured at 24 hrs by imaging analysis relative to control; assay type: functional; parameters: scale not given: the % may be the effect or the level left
Mus musculus [9] = test: Vascular disrupting activity in female BALB/c mouse implanted with orthotropic 4T1-Luc cells assessed as reduction in bioluminescence imaging signal at 50 mg/kg, ip measured at 4 hrs by imaging analysis relative to control; assay type: functional; parameters: scale not given: the % may be the effect or the level left
[10] = Toxicity in female BALB/c mouse implanted with orthotropic 4T1-Luc cells assessed as animal death at >50 mg/kg, ip measured within 24 hrs; assay type: organism-based; details: in vivo

Row | inhibition (Tubulin (Homo sapiens)) | SMILES | IC50 [1] | GI50 (MCF7) | GI50 (MDA-MB-231) | also measured
1 | – | COc1ccc(-c2[nH]c3c(OC)c(OC)c(OC)cc3c2C(=O)c2cc(OC)c(OC)c(OC)c2)cc1O | > 20000 nM | > 5000 nM | – | –
2 | 25% | COc1ccc2c(C(=O)c3cccc(F)c3)c(-c3ccc(OC)c(O)c3)[nH]c2c1 | 1600 nM | 2500 nM | 7110 nM | –
3 | 50% | COc1ccc2c(C(=O)c3cc(F)cc(F)c3)c(-c3ccc(OC)c(O)c3)[nH]c2c1 | 820 nM | 1500 nM | 3170 nM | –
4 | 69% | COc1ccc2c(C(=O)c3cccc(Cl)c3)c(-c3ccc(OC)c(O)c3)[nH]c2c1 | 450 nM | 470 nM | 319 nM | –
5 | – | COc1ccc(-c2[nH]c3c(OC)c(OC)ccc3c2C(=O)c2cc(OC)c(OC)c(OC)c2)cc1OP(=O)([O-])[O-].[Na+].[Na+] | – | – | – | Activity [2]: Non-toxic; Activity (Mus musculus [3]): 15%; Activity (Mus musculus [4]): Active; Little Change Observed Relative To 4 Hrs Compound Treatment; Activity (Mus musculus [5]): 91%; Activity (Mus musculus [6]): Active; Slight Recovery Observed
6 | 80% | COc1ccc2c(C(=O)c3cc(Cl)cc(Cl)c3)c(-c3ccc(OC)c(O)c3)[nH]c2c1 | 740 nM | 240 nM | 133 nM | –
7 | – | COc1ccc2c(C(=O)c3c(F)c(F)c(F)c(F)c3F)c(-c3ccc(OC)c(O)c3)[nH]c2c1 | > 20000 nM | > 5000 nM | – | –
8 | – | COc1ccc(-c2[nH]c3c(C)c(C)ccc3c2C(=O)c2cc(OC)c(OC)c(OC)c2)cc1O | > 20000 nM | > 5000 nM | – | –
9 | – | COc1ccc(-c2[nH]c3cc(OC)c(OC)c(OC)c3c2C(=O)c2cc(OC)c(OC)c(OC)c2)cc1 | > 5000 nM | 1500 nM | – | –
10 | – | COc1ccc(-c2[nH]c3c(OP(=O)([O-])[O-])c(OC)ccc3c2C(=O)c2cc(OC)c(OC)c(OC)c2)cc1OC.[Na+].[Na+] | – | – | – | Activity (Mus musculus [7]): inactive; Activity (Mus musculus [8]): 50%; Activity (Mus musculus [9]): 95%; Activity [10]: Toxic
11 | – | COc1cccc(-c2[nH]c3cc(OC)c(OC)c(OC)c3c2C(=O)c2cc(OC)c(OC)c(OC)c2)c1 | > 5000 nM | > 5000 nM | – | –
12 | 33% | COc1cccc(C(=O)c2c(-c3ccc(OC)c(O)c3)[nH]c3cc(OC)ccc23)c1 | 4200 nM | 490 nM | 537 nM | –
13 | – | COc1ccc(/C=C\c2cc(OC)c(OC)c(OC)c2)cc1O [COMBRETASTATIN A4] | 910 nM | 9.5 nM | 1.7 nM | –
14 | – | COc1ccc(-c2[nH]c3c(O)c(OC)ccc3c2C(=O)c2cc(OC)c(OC)c(OC)c2)cc1 | 860 nM | 6 nM | 170 nM | –
15 | – | COc1ccc(-c2[nH]c3c(OC)c(OC)ccc3c2C(=O)c2cc(OC)c(OC)c(OC)c2)cc1O | 760 nM | 3.5 nM | 14 nM | –

Row | SMILES | inhibition (Tubulin (Homo sapiens)) | IC50 [1] | GI50 (MCF7) | GI50 (MDA-MB-231) | also measured
16 | COc1ccc2c(C(=O)c3cc(OC)c(OC)c(OC)c3)c(-c3ccc(OC)c([N+](=O)[O-])c3)[nH]c2c1 | 24% | 770 nM | 120 nM | 275 nM | –
17 | COc1ccc2c(C(=O)c3cc(OC)c(OC)c(OC)c3)c(-c3ccc(OC)c(Br)c3)[nH]c2c1 | 34% | 1200 nM | 413 nM | 483 nM | –
18 | COc1ccccc1-c1[nH]c2cc(OC)c(OC)c(OC)c2c1C(=O)c1cc(OC)c(OC)c(OC)c1 | 70% | 920 nM | 85 nM | 6980 nM | –
19 | COc1ccc2c(C(=O)c3cc(OC)c(OC)c(OC)c3)c(-c3ccc(OC)c(N)c3)[nH]c2c1 | 65% | 430 nM | 20 nM | 36.9 nM | –
